Measurements as given in patent publication US20210393742A1, “LONG-ACTING INTERLEUKIN-15 RECEPTOR AGONIST IN COMBINATION WITH ANOTHER PHARMACOLOGICALLY ACTIVE AGENT” (Nektar Therapeutics, priority 2018, published 2021).

Key:
[1] = test system: FaDu cells; experiment: ADCC of cetuximab-coated FaDu cells by primed human NK cells (Example 20); format: cell-based; settings: NK cells primed with 300 ng/mL overnight; cetuximab 300 ng/mL; E:T 10:1, 3 hours
Protocol: (§1) Human NK cells were magnetically sorted from normal donor PBMCs using negative selection. NK cells were seeded in a 96-well U-bottom plate at a density of 400,000 cells/well. NK cells were stimulated with mono(methoxyPEG-N-butanamide)40 kD interleukin-15 (Compound 1) (300 ng/mL) (+) or left unstimulated (−) in complete RPMI-1640 media supplemented with 10% fetal bovine serum (FBS) and 1% antibiotic/antimycotic overnight at 37° C. in 5% CO2.
The epithelial/pharyngeal head and neck human FaDu cells (ATCC #HTB-43) were cultured in minimal eagle's essential media (EMEM; ATCC+30-2003) supplemented with 10% fetal bovine serum (FBS) and 1% antibiotic/antimycotic at 37° C. in 5% CO2. FaDu cells were subcultured by incubating in 0.25% Trypsin-0.53 mM EDTA for 5 min at 37° C., washed in sterile PBS, resuspended in culture media, counted, and co-cultured with the NK cells using an effector:target (E:T) of 10:1. […] Following incubation, cells were washed in flow staining buffer, Fc-blocked for 15 min at 4° C., and surface-stained (CD45, CD56, CD3-fluorescently conjugated antibodies) for 20 min at 4° C. in the dark. The cells were washed in PBS and incubated in 7-aminoactinomycin (7-AAD) viability stain for 30 minutes at 4° C. before acquiring for flow cytometric analysis using a Fortessa (BD). […]

[2] = test system: CD56+ human NK cells; experiment: Dose response of human NK cell proliferation in CFSE labeled PBMCs (Example 8); format: cell-based; settings: 5 days
Protocol: Human peripheral blood mononuclear cell (PBMCs) labeled with a CFSE preparation were incubated for 5 days in vitro in the presence of increasing doses of rhIL-15 (dose range 1 ng/ml-100 ng/ml, 5 point, 3 fold dilutions) or a long-acting IL-15 receptor agonist (mono(mPEG-butanamide)IL-15) (dose range 10 ng/ml-1000 ng/ml, 5 point, 3 fold dilutions). After the incubation period, cell proliferation as indicated by the decrease of CFSE in the cells that had undergone cell doublings was measured with flow cytometry measuring CFSE levels in CD56+ human NK cells within the PBMCs preparation.

[3] = test system: human B cell lymphoma (Daudi) cells; experiment: ADCC of rituximab-coated target cells by primed human NK cells (Example 12); format: cell-based; settings: NK cells primed with 300 ng/mL overnight; rituximab 10 ng/mL; E:T 2:1, 3 hr
Protocol: as §1, with “of 80,000 cells/well (FIG. 15A) OR” for “of”, “cells/well (FIG. 15B).” for “cells/well.”, “300 ng/mL of a long-acting IL-15 receptor agonist (mono(mPEG-butanamide)IL-15)” for “mono(methoxyPEG-N-butanamide)40 kD interleukin-15 (Compound 1) (300 ng/mL)”
Alternatively, the human B cell lymphoma (Daudi) cells were washed in PBS and stained with 0.3 μM CFSE for 5 min at 37° C. The rituximab-coated (+10 ng/mL) CFSE-labeled tumor (target cells) cells were concurrently co-cultured with the NK cells (effector cells) in an E:T ratio of 2:1 for 3 hr at 37° C. in 5% CO2. Following incubation, cells were washed in flow staining buffer, Fc-blocked for 15 min at 4° C., and surface-stained (CD45, CD56, CD3-fluorescently conjugated antibodies). The cells were washed in PBS and incubated in 7-aminoactinomycin (7-AAD) viability stain for 30 minutes at 4° C. before acquiring for flow cytometric analysis using a Fortessa (BD). The percentage of 7-AAD+ CFSE+ target cells from total cell population is the percentage for dead tumor cells.

[4] = test system: CD56+ human NK cells; experiment: Functional activation of human NK cells in PBMCs, CD69 and CD107a MFI by flow cytometry (Example 6); format: cell-based; settings: overnight; Conjugate 1 1 μg/ml; plate coated with hIgG 0.1 mg/ml
Protocol: Functional activation of human NK cells within a human peripheral blood mononuclear cells (PBMCs) preparation was induced in vitro. PBMCs from two donors were incubated overnight in the presence of (i) mono(methoxyPEG-N-butanamide)40 kD interleukin-15 (Conjugate 1) at a concentration of 1 μg/ml; (ii) on cell culture plastic that had been prior coated overnight with human total immunoglobulin G (hIgG) solution at a concentration of 0.1 mg/ml (iii) on cell culture plastic that had been prior coated overnight with human total immunoglobulin G (hIgG) solution at a concentration of 0.1 mg/ml and in the presence of Conjugate 1 at a concentration of 1 μg/ml; or (iv) on regular cell culture plastic.
After the incubation period, NK cell activation was measured with flow cytometry by measuring the increase of median fluorescence intensity (MFI) signal of CD69 (FIG. 9A) and CD107a (FIG. 9B) detecting antibodies on the surface of CD56+ human NK cells within the PBMCs. Functional activation of NK cells was assessed by calculating the fold-change in MFI when comparing control condition where the cells were exposed to neither hIgG nor Conjugate 1. […] Secreted granzyme B concentration also indicative of NK cell activation in the culture media at the end of the experiment was measured by ELISA (FIG. 9C).

[5] = test system: NK cells; experiment: CD16 surface expression on bone marrow NK cells of Daudi lymphoma bearing mice (Example 10); format: in vivo; settings: bone marrow day 24
Protocol: Balb/c mice bearing Daudi B cell lymphoma tumors in the bone marrow (n=6/group) were intraperitoneally administered a single 0.5 mg/kg dose of the human CD38 protein targeting clinical antibody daratumumab (DARZALEX®, Janssen Biotech) or a nonspecific control antibody with a matching isotype on day 14 after Daudi cell intravenous inoculation. Additional groups were treated with (i) mono(mPEG-N-butanamide)40 kD interleukin-15 (Conjugate 1) administered subcutaneously at a dose of 0.3 mg/kg as a single agent on days 14 and 21 after Daudi cell inoculation, or (ii) a combination treatment of Conjugate 1 administered subcutaneously at doses of 0.03 mg/kg or 0.3 mg/kg on days 14 and 21 after Daudi cell inoculation and daratumumab administered intraperitoneally at a dose of 0.5 mg/kg on day 14 after Daudi cell inoculation.
Three days following the second Conjugate 1 administration (day 24 after Daudi inoculation), bone marrow was collected and the NK cell fraction was measured by flow cytometry in total bone marrow. The fraction of NK cells expressing the cell surface CD16 receptor that is known to mediate antibody dependent cellular cytotoxicity mechanism in the presence of tumor targeting antibodies, and the change in CD16 expression per cell basis on NK cells are shown in FIGS. 13A and 13B, respectively.

[6] = Conjugate 1 0.3 mg/kg, antibody 0.5 mg/kg

mono(methoxyPEG-N-butanamide)40 kD interleukin-15 [Conjugate 1]
ADCC, % 7-AAD+CD45- target cells [1]: enhance ADCC of cetuximab-coated human solid tumor cells | EC50 (ng/ml)-% proliferation [2]: 39.04 ng/mL | Emax-% proliferation [2]: 71.6% | potency in inducing human NK cell proliferation, fold less than rhIL-15 [2]: approximately 17 fold | ADCC, % 7-AAD+ target cells [3]: enhance ADCC | CD69 MFI fold-change relative to no stimulation control [4]: 1.8 fold | CD107a MFI fold-change relative to no stimulation control [4]: 2.6 fold | Fraction of NK cell expressing cell surface CD16 (mean value) ([5]; Conjugate 1 0.3 mg/kg SC days 14 and 21, antibody 0.5 mg/kg IP day 14): 96% | CD16 mean fluorescence intensity (MFI mean value) [5, 6]: 853 | Relative CD16 expression compared to untreated condition [5, 6]: 1.8x increase
